# Experimental data reported in patent US20250303006A1, “BIOCOMPATIBLE ANTISEPTIC COMPOSITION CONTAINING 9-HYDROXYCALABAXANTHONE AND/OR RELATED XANTHONES” (UNIVERSITAT DE LES ILLES BALEARS, priority 2022, published 2025).
# Columns and labels:
# S. pyogenes = S. pyogenes culture and proliferation assay; format: cell-based, Streptococcus pyogenes; details: 0.0002% HCX, 24 h
# Protocol: S. pyogenes was grown from frozen stocks in Tryptic Soy Broth (TSB) (Scharlab), at 37° C. under aerobic conditions in an orbital shaker (180 rpm). After overnight incubation, 1 mL of bacterial suspensions were incubated with different concentrations of CHX (0.01, 0.005, 0.003, 0.001, 0.0001%) and HCX (0.003, 0.002, 0.001, 0.0002, 0.00002%) for 24 hours at 37° C. under aerobic conditions in an orbital shaker (180 rpm). Bacterial suspension without treatment served as negative control (C−). The optical density (OD) was measured at 600 nm at 0 h and 24 h to determine bacterial proliferation (PowerWave Ht). The bacterial growth rate (μ) was calculated during the exponential growth phase following the equation ln ODt−ln OD0=μ×(t−t0) (n=4). The live/Dead ratio of bacteria was determined using the LIVE/DEAD BacLight bacterial viability kit (Invitrogen), following the manufacturer's instructions. The assays were carried out in triplicate.
# bacterial plaque biofilm = assay: In vitro bacterial plaque biofilm formation from pooled human saliva; format: cell-based; details: 0.05% HCX solution, slides immersed 2 min on days 2 and 3; equal to 0.2% chlorhexidine
# Protocol: This is an in vitro study using pooled human saliva as a test substrate to compare the ability of 9-hydroxycalabaxanthone (HCX) versus chlorhexidine (CHX) and control to prevent or reduce plaque biofilm buildup.
# Human saliva from different donors was collected and pooled. 15 ml of the pooled saliva supplemented with 0.1% sucrose was pipetted into sterile 40 ml containers and then a glass microscope slide was submerged below 2 cm of saliva in each container and incubated at 37° C. for bacterial biofilm formation. Twice a day the slide was immersed in TSB culture medium. On days 2 and 3, the biofilm was treated with different groups: (1) a solution containing 0.05% 9-hydroxycalabaxanthone (HCX) (n=6), (2) a solution containing 0.2% chlorhexidine (CHX) (n=6), and a solution containing water (C−) (n=6), by immersing the slides for 2 min in the test of the assigned product. […] The removed biofilms were subjected to sonication using three 15 s pulses with a power of 7 W. The homogenized bacterial suspension was used to determine the bacterial viability both by quantification of colony-forming units (CFU) per mL and by LIVE/DEAD assay.
# For the Bacterial viability assay, an aliquot (0.1 mL) of the homogenized bacterial suspension was serially diluted and plated on TSB agar. The plates were incubated in 5% CO2 at 37° C. for 48 h, and then the number of CFU/mL was determined. […]
# [1] = system: human gingival fibroblast cells; assay: LDH cytotoxicity in immortalized human gingival fibroblasts; format: cell-based
# Protocol: Cells were seeded in 48-well plates at a density of 2×10^4 cells/well. When the cells reached confluence, they were treated with different concentrations of HCX, and cytotoxicity was determined.
# 48 hours after seeding the iHGF cells in 48-well plates, cell inflammation was induced by means of adding 1 μg/ml of P. gingivalis lipopolysaccharide (LPS) (InvivoGen, San Diego, CA, USA) and the cells were treated with different concentrations of HCX (0.00002, 0.0002, 0.002%) in a fibroblast medium with 50 μg/ml of ascorbic acid (Sigma-Aldrich, St. Louis, MO, USA) for 48 hours. Images of the cells were taken with a bright field inverted microscope (Nikon Eclipse TS100) before treatment and 24 hours and 48 hours after treatment.
# To estimate the cytotoxicity of the different concentrations of HCX, the presence of lactate dehydrogenase (LDH) in the culture media 48 h after pro-inflammatory stimulation with LPS and treatment with HCX was used as the cell death index. Following the manufacturer's instructions (Cytotoxicity Detection kit, Roche Diagnostics, Mannheim, Germany), LDH activity was determined spectrophotometrically after a 30-minute incubation at room temperature (RT) of 50 μl of culture media and 50 μl of the reaction mixture, measuring nicotinamide adenine dinucleotide (NADH) oxidation at 490 nm in the presence of pyruvate. Results were presented in relation to LDH activity of the media of the cells seeded without treatment (negative control, 0% cell death) and in relation to cells treated with 1% Triton X-100 (positive control, 100% death) using the following equation: Cytotoxicity (%)=[(expected value−negative control)/(positive control−negative control)]×100.
# Different hydrogel formulations with and without 0.05% of HCX (HA, GelMa, Alginate and HPMC) and commercial gel containing 0.2% chlorhexidine and unmodified HA (Periokin Hyaluronic 1%, Laboratorios Kin, Commercial HA 0.2% CHX) were used for studies with gingival fibroblasts and S. epidermidis. Cells and bacteria without hydrogels served as negative control (C−). Gels at a concentration of 5% (v/v) were used for cell and bacterial studies.
# Immortalized human gingival fibroblasts were cultured like in experiment 1 of section 1.2. The cells were treated with different hydrogel formulations with and without 0.05% of HCX (HA, GelMa, Alginate and HPMC) and commercial gel containing 0.2% chlorhexidine and unmodified HA (Periokin Hyaluronic 1%, Laboratorios Kin, commercial HA 0.2% CHX) in a fibroblast medium for 24 hours (n=4). Cell cytotoxicity was measured, like in experiment 1 of section 1.4.
# 16.1. […]
# Immortalized human gingival fibroblasts were cultured like in experiment 1 of section 1.2. […] Cell cytotoxicity was measured, like in experiment 1 of section 1.4.
smiles,measurement,setting,value
"COc1c(O)cc2oc3cc4c(c(O)c3c(=O)c2c1CC=C(C)C)C=CC(C)(C)O4 [HCX, 9-hydroxycalabaxanthone]",bacteria eliminated,S. pyogenes,100%
same,"plaque biofilm bacteria formation (live/dead ratio, CFU/mL)",bacterial plaque biofilm,reduced plaque biofilm bacteria formation
same,cytotoxicity evaluated by activity of lactate dehydrogenase (LDH) released into the medium,"[1]; HCX 0.00002, 0.0002, 0.002%, 48 h, LPS-stimulated iHGF",not observed
same,concentration that can be applied to cells and tissues,[1]; formulated in solution,up to 0.002%
